Read-outs that look alike come from different tables or passages of the source.
Assays:
In vivo pharmacokinetics = experiment: In vivo pharmacokinetics; set-up: species or system female golden Syrian hamsters; details: for AUC(0-t): read-out: AUC0-24 (first dose); for AUC: read-out: AUC96-120 (last dose)
Description: Additional PK studies were also conducted by WuXi AppTec Co, Ltd (Shanghai, China) according to protocols reviewed and approved by DNDi. […] IV and oral formulations for rats, mice and hamsters were the same as described above. For dogs, the IV dose was administered in saline containing 2% DMSO and 3% Solutol HS-15 and the oral formulation was as described above. Blood was sampled up to 48 h post-dose into vials containing potassium EDTA as an anticoagulant, proteins were precipitated with acetonitrile and plasma was separated and assayed by LC-MS.
Single dose pharmacokinetic parameters (clearance, volume of distribution and half-life) were initially estimated using non-compartmental methods and oral bioavailability was calculated using the ratio of the dose corrected AUC after oral dosing relative to that after IV administration. […] Where a full concentration versus time profile was obtained from a single animal, parameters were estimated for each animal and mean and standard deviations calculated. In the case of mice where sparse sampling was used with multiple animals per time point, the data analysis was conducted using the mean profile.

[1] = tested on: L. donovani promastigote cultures; experiment: microbe, parasite or virus in culture; format: cell-based; details: Leishmania donovani
Description: The clonal L. donovani cell line LdBOB (derived from MHOM/SD/62/1S-CL2D) was grown as promastigotes at 28°C and as axenic amastigotes at 37°C, as described previously ([25]).
To examine the effects of test compounds on growth in 96-well plates, promastigote or axenic amastigote cultures seeded at 5 × 10^4 parasites mL^–1 were incubated in the presence of 2-fold serial dilutions of test compounds for 72 h. Following incubation, 50 μM resazurin was added to each well and fluorescence (excitation of 528 nm and emission of 590 nm) measured after a further 3 h incubation.
Starting at sublethal concentrations, drug concentrations in 5 independent cultures were increased in a stepwise manner, usually by 2-fold. […] Five clones (Res 1–5) were selected for further biological study.

[2] = In vitro metabolism, liver microsomes; format: in vitro ADME; details: Rat
Description: Compounds were spiked into microsomal matrix prepared in 0.1 M pH 7.4 phosphate buffer containing magnesium chloride (final concentration of 3.3 mM), equilibrated for 5-10 min at 37°C. The reaction was initiated with the addition of freshly prepared solution of NADPH (final 1.3 mM). Control samples without co-factor were included for comparison. Aliquots of the reaction mixtures were taken periodically over 60 min and quenched with acetonitrile containing internal standards (metolazone and diazepam). Quenched samples were maintained on ice for approximately 20-30 min, centrifuged (for 5 min) and the supernatant was analyzed by LC-MS.
In vitro intrinsic clearance (CLint, μL/min/mg or μL/min/10^6 cells) values were calculated from the apparent first order degradation rate constant divided by the microsome concentration or the hepatocyte cell number (10^6 viable cells/mL). In vitro CLint values were then divided by the fraction unbound in the in vitro test system (to give CLint,u) and scaled to in vivo values (mL/min/kg) using published physiological scaling factors ([28]). Blood clearance in each species was then calculated using the well-stirred model of hepatic extraction (equation 2) where Q is the hepatic blood flow and fu,blood is calculated from fu,plasma/B:P: [2] PredictedCLblood=Q x fu,blood x CLint,u/Q+fu,blood x CLint,u […]

[3] = female, golden Syrian, hamster, plasma, hamsters, oral 12.5 mg/kg qd, 5 days
[4] = female, golden Syrian, hamster, plasma, hamsters, oral 25 mg/kg qd, 5 days

Compound: Cc1[nH]c2nc(N)nc(C)c2c1-c1ccc(C#N)c2c1OCO2 [DNDI-6174]
- Cmax at 5 days (In vivo pharmacokinetics; [3]): 3.53 µg/mL
- AUC(0-t) (In vivo pharmacokinetics; [3]): 22.9 µg·h/mL
- AUC (In vivo pharmacokinetics; [3]): 30.2 µg·h/mL
- Cmax at 5 days (In vivo pharmacokinetics; [4]): 7.79 µg/mL
- AUC(0-t) (In vivo pharmacokinetics; [4]): 44.2 µg·h/mL
- AUC (In vivo pharmacokinetics; [4]): 77.4 µg·h/mL
- Cmax (In vivo pharmacokinetics; female, golden Syrian, hamster, plasma, hamsters, oral 25 mg/kg qd, 5 days, read-out: Cmax (Day 1)): 4.56 µg/mL
- AUC(0-t) (In vivo pharmacokinetics; female, golden Syrian, hamster, plasma, hamsters, oral 50 mg/kg, single dose on day 1 only): 145 µg·h/mL
- Cmax (In vivo pharmacokinetics; female, golden Syrian, hamster, plasma, hamsters, oral 50 mg/kg, single dose on day 1 only, read-out: Cmax (Day 1)): 13.2 µg/mL
- Tmax (In vivo pharmacokinetics; female, golden Syrian, plasma, Hamster, oral 12.5 mg/kg): 2.7 h
- half-life (In vivo pharmacokinetics; female, golden Syrian, plasma, Hamster, oral 12.5 mg/kg, read-out: Apparent t1/2 (converted)): 2.6 h
- Cmax (In vivo pharmacokinetics; female, golden Syrian, plasma, Hamster, oral 12.5 mg/kg, read-out: Cmax): 2.87 µg/mL
- AUC(0-inf) (In vivo pharmacokinetics; female, golden Syrian, plasma, Hamster, oral 12.5 mg/kg, read-out: Plasma AUC0-∞): 21.2 µg·h/mL
- Cmax (Day 1) (In vivo pharmacokinetics; hamsters, oral 12.5 mg/kg qd, 5 days): 2.87 µg/mL
- EC50 ([1]; DDD01716002 Res 1, read-out: EC50 (representative curve, Fig. 2A)): 1.276 ± 0.002 µM
- EC50 ([1]; WT, read-out: EC50 (representative curve, Fig. 2A)): 0.022 ± 0.002 µM
- EC50 ([1]; Wild-type promastigotes, read-out: EC50 values): 0.024 ± 0.001 µM
- EC50 ([1]; read-out: EC50 values, DDD01716002 Res 1 (S207P)): 0.779 ± 0.098 µM
- EC50 ([1]; read-out: EC50 values, DDD01716002 Res 2 (G31A)): 0.829 ± 0.063 µM
- EC50 ([1]; read-out: EC50 values, DDD01716002 Res 3 (F227I)): 0.084 ± 0.003 µM
- EC50 ([1]; read-out: EC50 values, DNDI-6174 Res 1 (S35N/S206N)): 0.431 ± 0.016 µM
- EC50 ([1]; read-out: EC50 values, DNDI-6174 Res 2 (D231E)): 3.95 ± 0.228 µM
- EC50 ([1]; read-out: EC50 values, DNDI-6174 Res 3 (S207P)): 1.5 ± 0.091 µM
- EC50 ([1]; read-out: EC50 values, DNDI-6174 Res 4 (G31A)): 2.7 ± 0.145 µM
- EC50 ([1]; read-out: EC50 values, DNDI-6174 Res 5 (S206N)): 0.157 ± 0.005 µM
- Microsome predicted in vivo CLplasma [2]: 0.144 L/h/kg
- microsomal CLint at 0.5 µM ([2]; liver microsomes, pH 7.4, 2 independent experiments, read-out: In vitro Microsome CLint): 10 ± 0.79 µL/min/mg

Reference: paper PMC7615677 (Science translational medicine, 2023)
